ChEMBL document CHEMBL1201862, “PubChem BioAssay data set” (2004)
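Five compound concentrations were applied to cells in 96-well plates for 48 hours; endpoints were derived by simple linear interpolation of the resulting dose-response curve. At the GI50, growth is halved.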 The source made the active and inactive calls. No stated cut-off is given here; in the data, active = GI50 up to about 1.1 µM and inactive = higher.

Columns and labels:
Assay in all cases: inhibition of tumour cell growth, NCI panel, 48 h
[1] = tested on: SF-295
[2] = tested on: COLO 205
[3] = tested on: SK-MEL-28
[4] = tested on: SNB-19
[5] = tested on: RXF 393
[6] = tested on: NCI-H522
[7] = tested on: T47D
[8] = tested on: MCF7
[9] = tested on: HOP-62
[10] = tested on: MOLT-4
[11] = tested on: KM12
[12] = tested on: U-251
[13] = tested on: M14
[14] = tested on: DU-145
[15] = tested on: SN12C
[16] = tested on: OVCAR-4
[17] = tested on: HOP-92
[18] = tested on: NCI/ADR-RES

SMILES | GI50 [1] | GI50 [2] | GI50 [3] | GI50 [4] | GI50 [5] | GI50 [6] | GI50 [7] | GI50 [8] | GI50 [9] | GI50 [10] | GI50 [11] | GI50 [12] | GI50 [13] | GI50 [14] | GI50 [15] | GI50 [16] | GI50 [17] | GI50 [18]
Cc1ccc(S(=O)(=O)NC(=O)NC(CC(=O)O)C(=O)O)cc1 (stereo not given) | > 100 µM (inactive) | > 100 µM (inactive) | > 100 µM (inactive) | > 100 µM (inactive) | > 100 µM (inactive) | > 100 µM (inactive) | > 100 µM (inactive) | > 100 µM (inactive) | > 100 µM (inactive) | > 100 µM (inactive) | > 100 µM (inactive) | > 100 µM (inactive) | > 100 µM (inactive) | > 100 µM (inactive) | > 100 µM (inactive) | > 100 µM (inactive) | > 100 µM (inactive) | > 100 µM (inactive)
O=C1c2ccccc2C(=O)c2c(NC(=O)C(Cl)CCl)cccc21 (stereo not given) | 26.7 µM (inactive) | 6.47 µM (inactive) | 17.2 µM (inactive) | 15.2 µM (inactive) | 6.64 µM (inactive) | 2.16 µM (inactive) | 2.75 µM (inactive) | 0.785 µM (active) | 10.5 µM (inactive) | < 0.0353 µM (active) | 2.58 µM (inactive) | 3.33 µM (inactive) | 6.28 µM (inactive) | 7.38 µM (inactive) | 7.67 µM (inactive) | 10.7 µM (inactive) | 3.97 µM (inactive) | 23.1 µM (inactive)
Cn1c2c(c3ccccc31)CCN1C(=O)CN(C(=O)C3CCCCC3)CC21 (stereo not given) | > 100 µM (inactive) | > 100 µM (inactive) | > 100 µM (inactive) | > 100 µM (inactive) | > 100 µM (inactive) | > 100 µM (inactive) | > 100 µM (inactive) | > 100 µM (inactive) | > 100 µM (inactive) | > 100 µM (inactive) | > 100 µM (inactive) | > 100 µM (inactive) | > 100 µM (inactive) | > 100 µM (inactive) | > 100 µM (inactive) | > 100 µM (inactive) | > 100 µM (inactive) | > 100 µM (inactive)
CCCCCCCCCC[C@@H](O)[C@H]1CC[C@H]([C@H]2CC[C@H]([C@H](O)CCCCCCCCCC[C@@H]3CC(CC(C)=O)C(=O)O3)O2)O1 (stereo not given in full) | 1.94 µM (inactive) | 13 µM (inactive) | > 50 µM (inactive) | > 47.3 µM (inactive) | 20.7 µM (inactive) | 7.87 µM (inactive) | > 17.2 µM (inactive) | 13.8 µM (inactive) | 46.5 µM (inactive) | 3.77 µM (inactive) | 15.8 µM (inactive) | > 50 µM (inactive) | 26.3 µM (inactive) | > 50 µM (inactive) | 33.4 µM (inactive) | 28.7 µM (inactive) | > 50 µM (inactive) | 4.69 µM (inactive)
c1cc(C[S+]2CCCC2)sc1C[S+]1CCCC1 | > 100 µM (inactive) | > 100 µM (inactive) | > 10 µM (inactive) | > 100 µM (inactive) | > 100 µM (inactive) | > 100 µM (inactive) | > 100 µM (inactive) | > 100 µM (inactive) | > 100 µM (inactive) | > 100 µM (inactive) | > 100 µM (inactive) | > 100 µM (inactive) | > 100 µM (inactive) | > 100 µM (inactive) | > 100 µM (inactive) | > 100 µM (inactive) | > 100 µM (inactive) | > 100 µM (inactive)
CC[C@]1(Cc2ccc(OC)c(OC)c2)C=[N+]([O-])O[C@H](OC2CCCC2(c2ccccc2)c2ccccc2)[C@@H]1OC(=O)c1ccccc1 (stereo not given in full) | 14.1 µM (inactive) | 8.79 µM (inactive) | 20.8 µM (inactive) | > 29.2 µM (inactive) | 4.35 µM (inactive) | 3.87 µM (inactive) | 2.73 µM (inactive) | 3.38 µM (inactive) | 9.89 µM (inactive) | 2.63 µM (inactive) | 3.9 µM (inactive) | 42.1 µM (inactive) | 8.13 µM (inactive) | 10.6 µM (inactive) | > 21.2 µM (inactive) | 7.38 µM (inactive) | 3.02 µM (inactive) | 4.73 µM (inactive)
C=C1C(=O)O[C@@H]2CC(CO)=C([C@@H](C)CCCO)[C@@H](OC(=O)/C(C)=C\C)[C@H]12 | 16.9 µM (inactive) | 14.5 µM (inactive) | 12 µM (inactive) | 20.1 µM (inactive) | 11.9 µM (inactive) | 2.62 µM (inactive) | 10.4 µM (inactive) | 10.2 µM (inactive) | 34.9 µM (inactive) | 10.8 µM (inactive) | 17.3 µM (inactive) | 15 µM (inactive) | 23.5 µM (inactive) | 8.71 µM (inactive) | 16.2 µM (inactive) | 22.2 µM (inactive) | 19.6 µM (inactive) | 20.2 µM (inactive)
N#CC(NC12CC3CC(CC(C3)C1)C2)c1ccc2c(c1)OCO2 (stereo not given) | > 100 µM (inactive) | > 100 µM (inactive) | > 100 µM (inactive) | > 100 µM (inactive) | > 100 µM (inactive) | > 100 µM (inactive) | > 100 µM (inactive) | > 100 µM (inactive) | > 100 µM (inactive) | > 100 µM (inactive) | > 100 µM (inactive) | > 100 µM (inactive) | > 100 µM (inactive) | > 100 µM (inactive) | > 100 µM (inactive) | > 100 µM (inactive) | 89.1 µM (inactive) | > 100 µM (inactive)
N#CCc1nc(-c2cc3c(ccc4ccccc43)oc2=O)cs1 | 26.7 µM (inactive) | > 100 µM (inactive) | 72.6 µM (inactive) | 19.1 µM (inactive) | 23.4 µM (inactive) | 13 µM (inactive) | 27.8 µM (inactive) | 38.3 µM (inactive) | 16.7 µM (inactive) | > 100 µM (inactive) | 33.6 µM (inactive) | 18.9 µM (inactive) | 99.1 µM (inactive) | 23.9 µM (inactive) | 57.8 µM (inactive) | 24.3 µM (inactive) | 20.3 µM (inactive) | 23 µM (inactive)
COc1cc2oc3cc(=O)cc4oc(-c5ccccc5)cc(c2c2c1CCC(c1ccccc1)O2)c43 (stereo not given) | 19.1 µM (inactive) | 18.8 µM (inactive) | 40.7 µM (inactive) | 63 µM (inactive) | 54.7 µM (inactive) | 34.8 µM (inactive) | 17.7 µM (inactive) | 7.66 µM (inactive) | 41 µM (inactive) | 8.95 µM (inactive) | 17 µM (inactive) | 43.1 µM (inactive) | 17.4 µM (inactive) | 24.3 µM (inactive) | 25.2 µM (inactive) | > 100 µM (inactive) | > 100 µM (inactive) | > 100 µM (inactive)
CN(C)CCCN1c2ccccc2Sc2cnccc21 | 35.1 µM (inactive) | 47 µM (inactive) | 39.1 µM (inactive) | > 100 µM (inactive) | 83 µM (inactive) | 65 µM (inactive) | > 100 µM (inactive) | 61 µM (inactive) | 41.6 µM (inactive) | 60 µM (inactive) | > 100 µM (inactive) | > 100 µM (inactive) | 52.2 µM (inactive) | > 100 µM (inactive) | 74.1 µM (inactive) | 93.8 µM (inactive) | 61 µM (inactive) | > 100 µM (inactive)
CCN(CC)C(=S)SC(=S)N(CC)CC | 39.8 µM (inactive) | 18.3 µM (inactive) | 36.6 µM (inactive) | 49.8 µM (inactive) | 36.6 µM (inactive) | 0.0951 µM (active) | 32.4 µM (inactive) | 34.8 µM (inactive) | 53.7 µM (inactive) | 26.4 µM (inactive) | 28.1 µM (inactive) | 36 µM (inactive) | 44.5 µM (inactive) | 55.8 µM (inactive) | > 54.3 µM (inactive) | 19.9 µM (inactive) | 39.4 µM (inactive) | 42.5 µM (inactive)
O=C(NCCCCNCCCNC(=O)c1ccccc1)c1ccccc1 | > 100 µM (inactive) | > 100 µM (inactive) | > 100 µM (inactive) | > 100 µM (inactive) | > 100 µM (inactive) | > 100 µM (inactive) | > 100 µM (inactive) | > 100 µM (inactive) | > 100 µM (inactive) | > 100 µM (inactive) | > 100 µM (inactive) | > 100 µM (inactive) | > 100 µM (inactive) | > 100 µM (inactive) | > 100 µM (inactive) | > 100 µM (inactive) | > 100 µM (inactive) | > 100 µM (inactive)
O=C(/C=C/c1cccc(Oc2ccccc2)c1)NCc1ccc(C(=O)NCCc2ccccc2)cc1 | > 100 µM (inactive) | > 100 µM (inactive) | > 100 µM (inactive) | 29.9 µM (inactive) | 20 µM (inactive) | 75 µM (inactive) | > 100 µM (inactive) | > 100 µM (inactive) | 27.2 µM (inactive) | > 100 µM (inactive) | > 100 µM (inactive) | 35 µM (inactive) | > 100 µM (inactive) | > 100 µM (inactive) | > 100 µM (inactive) | 58.5 µM (inactive) | > 100 µM (inactive) | > 100 µM (inactive)
CCCNC(=S)N/N=C1\C(=O)Nc2ccccc21 | > 100 µM (inactive) | > 100 µM (inactive) | > 100 µM (inactive) | > 100 µM (inactive) | > 100 µM (inactive) | > 100 µM (inactive) | > 100 µM (inactive) | > 100 µM (inactive) | > 100 µM (inactive) | > 100 µM (inactive) | > 100 µM (inactive) | > 100 µM (inactive) | > 100 µM (inactive) | > 100 µM (inactive) | > 100 µM (inactive) | > 100 µM (inactive) | > 100 µM (inactive) | > 100 µM (inactive)
